Measured values as given in ChEMBL document CHEMBL3259686, “Biologically active dichapetalins from Dichapetalum gelonioides” (J Nat Prod, 2014).
Calls of active or inactive are those of the source. The calls are words filed in the database; no cut-off is given here.

Key:
A549 = experiment: Cytotoxicity against human A549 cells after 48 hrs by MTS assay; assay type: functional, cell-based; details: A549, 48 h
Panagrellus redivivus = experiment: Nematicidal activity against Panagrellus redivivus assessed as mortality at 100 ug/ml after 72 hrs by light binocular microscopic analysis (reference value: 7.1 +/- 0.9%); assay type: functional
[1] = tested on: Colletotrichum gloeosporioides; experiment: Antifungal activity against Colletotrichum gloeosporioides at 50 ug/disc after 2 days by disk diffusion method; assay type: functional; details: for zone of inhibition at 50 µg/disc: 48 h, read-out: DIZ
HL-60 = experiment: Cytotoxicity against human HL60 cells after 48 hrs by MTS assay; assay type: functional, cell-based; details: HL-60, 48 h
Rhizoctonia solani = experiment: Antifungal activity against Rhizoctonia solani at 50 ug/disc after 2 days by disk diffusion method; assay type: functional; details: for zone of inhibition at 50 µg/disc: 48 h, read-out: DIZ
MCF7 = experiment: Cytotoxicity against human MCF7 cells after 48 hrs by MTS assay; assay type: functional, cell-based; details: MCF7, 48 h
Spodoptera exigua = experiment: Antifeedant activity against beet armyworm after 24 hrs; assay type: functional, organism-based
[2] = Antifungal activity against Cylindrocarpon musae at 50 ug/disc after 2 days by disk diffusion method; assay type: functional
[3] = tested on: Fusarium oxysporum f. sp. niveum; experiment: Antifungal activity against Fusarium oxysporum f. sp. niveum at 50 ug/disc after 2 days by disk diffusion method; assay type: functional; details: for zone of inhibition at 50 µg/disc: 48 h, read-out: DIZ
SW480 = experiment: Cytotoxicity against human SW480 cells after 48 hrs by MTS assay; assay type: functional, cell-based; details: SW480, 48 h
SMMC-7721 = experiment: Cytotoxicity against human SMMC7721 cells after 48 hrs by MTS assay; assay type: functional, cell-based; details: SMMC-7721, 48 h
[4] = Cytotoxicity against human WM266.4 cells; assay type: functional, cell-based; details: WM 266-4
HCT-116 = experiment: Cytotoxicity against human HCT116 cells; assay type: functional, cell-based
RAW264.7 [5] = experiment: Inhibition of LPS-induced nitric oxide production in mouse RAW264.7 cells by Griess method; assay type: functional, cell-based
RAW264.7 [6] = experiment: Ratio of MG132 IC50 to compound IC50 for LPS-induced nitric oxide production in mouse RAW264.7 cells; assay type: functional
RAW264.7 [7] = experiment: Cytotoxicity against mouse RAW264.7 cells by MTT assay; assay type: cell-based

Compound: C[C@]1(OC(=O)C[C@@H](O)c2ccc(O)cc2)CO[C@@]2(C[C@@H]([C@@H]3CC[C@]45C[C@]34C=C[C@@H]3[C@@]4(C)CC=C6C[C@@H](c7ccccc7)OC[C@]6(C)[C@@H]4CC(=O)[C@]35C)C(=O)O2)C1
- IC50 (A549): 26.8 µM
- mortality at 100 µg/mL (Panagrellus redivivus): 20.5%
- zone of inhibition at 50 µg/disc [1]: 12.4 mm
- IC50 (HL-60): > 40 µM
- zone of inhibition at 50 µg/disc (Rhizoctonia solani): 13.8 mm
- IC50 (MCF7): 8.2 µM
- EC50 (Spodoptera exigua): 78.7 microg/cm2
- inhibition zone (IZ) [2]: 12.8 mm
- zone of inhibition at 50 µg/disc [3]: 12.8 mm
- IC50 (SW480): > 40 µM
- IC50 (SMMC-7721): > 40 µM

Compound: COc1ccc([C@@H]2CC3=CC[C@@]4(C)[C@@H](CC(=O)[C@]5(C)[C@@H]4C=C[C@]46C[C@@]45CC[C@H]6[C@@H]4C[C@@]5(OC[C@](C)(OC(=O)CCc6ccc(O)cc6)[C@H]5O)OC4=O)[C@@]3(C)CO2)cc1
- IC50 (A549): > 40 µM
- mortality at 100 µg/mL (Panagrellus redivivus): 7.8%
- IC50 (HL-60): > 40 µM
- IC50 (MCF7): > 40 µM
- EC50 (Spodoptera exigua): 28.9 microg/cm2
- IC50 (SW480): > 40 µM
- IC50 (SMMC-7721): > 40 µM

Compound: COC(=O)[C@@H](C[C@@]1(OC)C[C@](C)(O)CO1)[C@@H]1CC[C@]23C[C@]12C=C[C@@H]1[C@@]2(C)CC=C4C[C@@H](c5ccccc5)OC[C@]4(C)[C@@H]2CC(=O)[C@]13C
- EC50 (Spodoptera exigua): 3.1 microg/cm2

Compound: COc1ccc([C@@H]2CC3=CC[C@@]4(C)[C@@H](CC(=O)[C@]5(C)[C@@H]4C=C[C@]46C[C@@]45CC[C@H]6[C@@H]4C[C@]5(C[C@@](C)(OC(=O)C[C@@H](O)c6ccc(O)cc6)CO5)OC4=O)[C@@]3(C)CO2)cc1
- mortality at 100 µg/mL (Panagrellus redivivus): 4.8%
- EC50 (Spodoptera exigua): > 100 microg/cm2

Compound: C[C@]12CC=C3C[C@@H](c4ccccc4)OC[C@]3(C)[C@@H]1C[C@@H](O)[C@]1(C)[C@@H]2C=C[C@]23C[C@]12CC[C@H]3[C@@H]1C[C@@]2(OC[C@](C)(OC(=O)CCc3ccc(O)cc3)[C@H]2O)OC1=O
- mortality at 100 µg/mL (Panagrellus redivivus): 61.8%
- EC50 (Spodoptera exigua): 9.8 microg/cm2

Compound: C[C@]1(OC(=O)C[C@@H](O)c2ccc(O)cc2)CO[C@@]2(C1)OC(=O)[C@H]([C@@H]1CC[C@]34C[C@]13C=C[C@@H]1[C@@]3(C)CC=C5C[C@@H](c6ccccc6)OC[C@]5(C)[C@@H]3CC(=O)[C@]14C)[C@H]2O
- IC50 (A549): 3 µM
- IC50 (HL-60): 5.1 µM
- IC50 (MCF7): 3.5 µM
- IC50 (SW480): 21 µM
- IC50 (SMMC-7721): 18.7 µM

Compound: CC(=O)O[C@@]1(C)CO[C@@]2(C1)OC(=O)[C@H]([C@@H]1CC[C@]34C[C@]13C=C[C@@H]1[C@@]3(C)CC=C5C[C@@H](c6ccccc6)OC[C@]5(C)[C@@H]3[C@@H](O)C(=O)[C@]14C)[C@H]2O
- EC50 [4]: 0.078 µM
- EC50 (HCT-116): 0.0099 µM

Compound: C/C(=C\[C@H]1C[C@@H]([C@@H]2CC[C@]34C[C@]23C=C[C@@H]2[C@@]3(C)CC=C5C[C@@H](c6ccccc6)OC[C@]5(C)[C@@H]3C[C@@H](O)[C@]24C)C(=O)O1)CO [DICHAPETALIN A]
- mortality at 100 µg/mL (Panagrellus redivivus): 15.3%
- diameter of the inhibition zone (DIZ) [1]: inactive
- IC50 (RAW264.7 [5]): 0.02 µM
- Ratio IC50 (RAW264.7 [6]): 20
- zone of inhibition at 50 µg/disc (Rhizoctonia solani): 10.5 mm
- EC50 (Spodoptera exigua): 3.1 microg/cm2
- inhibition zone (IZ) [2]: 12.8 mm
- Activity (RAW264.7 [7]): Non-toxic
- diameter of the inhibition zone (DIZ) [3]: inactive

Compound: C[C@]1(O)CO[C@@]2(C1)OC(=O)[C@H]([C@@H]1CC[C@]34C[C@]13C=C[C@@H]1[C@@]3(C)CC=C5C[C@@H](c6ccccc6)OC[C@]5(C)[C@@H]3CC(=O)[C@]14C)[C@H]2O
- mortality at 100 µg/mL (Panagrellus redivivus): 46.3%

Compound: C/C(=C\[C@H]1C[C@@H]([C@@H]2CC=C3[C@]4(C)[C@H](O)C[C@@H]5[C@](C)(CC=C6C[C@@H](c7ccccc7)OC[C@@]65C)[C@H]4CC[C@]32C)C(=O)O1)CO
- mortality at 100 µg/mL (Panagrellus redivivus): 3%
- EC50 (Spodoptera exigua): 3.4 microg/cm2

Compound: COc1ccc([C@@H]2CC3=CC[C@]4(C)[C@H]5C=C[C@]67C[C@]6(CC[C@H]7[C@@H]6C[C@H](/C=C(\C)CO)OC6=O)[C@]5(C)[C@H](O)C[C@H]4[C@@]3(C)CO2)cc1 [DICHAPETALIN K]
- mortality at 100 µg/mL (Panagrellus redivivus): 4.4%

Compound: COC(=O)[C@@H](Cc1cc(C)co1)[C@@H]1CC[C@]23C[C@]12C=C[C@@H]1[C@@]2(C)CC=C4C[C@@H](c5ccccc5)OC[C@]4(C)[C@@H]2CC(=O)[C@]13C
- IC50 (A549): 17.6 µM
- mortality at 100 µg/mL (Panagrellus redivivus): 2.5%
- IC50 (HL-60): 10.2 µM
- IC50 (MCF7): 21 µM
- EC50 (Spodoptera exigua): > 100 microg/cm2
- IC50 (SW480): > 40 µM
- IC50 (SMMC-7721): 24.8 µM

Compound: NYSTATIN
- inhibition zone (IZ) [1]: 14.5 mm
- inhibition zone (IZ) (Rhizoctonia solani): 14.7 mm
- inhibition zone (IZ) [2]: 16.6 mm
- inhibition zone (IZ) [3]: 12 mm

Compound: CC(=O)O[C@@]1(C)CO[C@@]2(C[C@@H]([C@@H]3CC[C@]45C[C@]34C=C[C@@H]3[C@@]4(C)CC=C6C[C@@H](c7ccccc7)OC[C@]6(C)[C@@H]4CC(=O)[C@]35C)C(=O)O2)C1
- zone of inhibition at 50 µg/disc [1]: 10.1 mm
- diameter of the inhibition zone (DIZ) (Rhizoctonia solani): inactive
- EC50 (Spodoptera exigua): 11.7 microg/cm2
- inhibition zone (IZ) [2]: 13.8 mm
- zone of inhibition at 50 µg/disc [3]: 11.5 mm
